In patent publication US20260184700A1, “PDK1 REGULATORY COMPOUND AND COMPOSITION CONTAINING THE SAME” (PROVIBIO CO., LTD., priority 2024, published 2026):

How the values were obtained:
[1] = tested on: T cells isolated from mouse spleen; assay: T cell proliferation inhibition, CFSE flow cytometry, CD3/CD28 activation; assay type: cell-based; settings: CD3/CD28 activated, 3 days
Method: To verify the T cell proliferation inhibitory effect of the compounds according to the present invention, the following experiment was performed based on flow cytometry analysis using carboxyfluorescein diacetate succinimidyl ester (CFSE), a fluorescent dye that binds to intracellular molecules via covalent bonds.
Spleens were extracted from 7-week-old C57BL/6 mice, ground, and then separated into single cells using a strainer (40 μm pore size, SPL). Red blood cells were removed using ACK (Ammonium-Chloride-Potassium) lysis buffer to isolate white blood cells.
Finally, using a MACS Magnetic Stand and LS column, T cells were isolated from the spleen.
The T cells isolated from the spleen were resuspended in 1 mL of free medium (RPMI-1640+200 U/mL penicillin+200 μg/mL streptomycin), and 0.3 μL of CFSE (10 mM) was added. The mixture was incubated at 37° C. for 5 minutes.
Free medium (10 mL) was added to stop the reaction, and the cells were centrifuged to obtain the cell pellet.
RPMI 1640 medium containing 10% FBS, 100 U/mL penicillin, 100 μg/mL streptomycin, and resuspended the cells. The cells were then seeded into a 96-well plate at a density of 2×10^5 cells per well and activated with CD3 and CD28 antibodies (0.5 μg/mL each) to activate T cells.
The compound diluted in DMSO was added at concentrations of 10 nM, 100 nM, 1 μM, 10 μM, 30 μM, and 50 μM, with three wells per concentration, and cultured at 37° C. and 5% CO2 for three days. The cells were then analyzed using a FACS Canto instrument.
The proliferation inhibition rate (%) was calculated using the following formula: […]

[2] = tested on: Human B Lymphocyte cell line, SU-DHL-8; assay: Relative cell viability, CCK-8, SU-DHL-8; assay type: cell-based; settings: 48 hours
Method: Human-derived B lymphoma cell line SU-DHL-8 (Cat. #CRL-2961) purchased from ATCC was cultured in RPMI-1640 medium containing 10% FBS, 100 U/mL penicillin, and 100 μg/mL streptomycin.
The cell culture medium was then harvested, centrifuged at 1,300 rpm for 5 minutes, and the supernatant was removed. The cells were resuspended in the same medium and dispensed into a 96-well plate (Costar 96-well cell culture plate, Corning) at 90 μL per well, resulting in the conditions specified in Table 5.
Then, 10 μL of CCK-8 was added to each well, and the plates were incubated again at 37° C. in a 5% CO2 incubator for 4 hours.
In other words, when the survival rate of untreated cells (DMSO) is set at 100%, the relative cell survival rate in each group treated with the drug at different concentrations is indicated.

Row | SMILES | Proliferation inhibition rate (%) ([1]; compound 1 μM) | Proliferation inhibition rate (%) ([1]; compound 10 μM) | Proliferation inhibition rate (%) ([1]; compound 30 μM) | Proliferation inhibition rate (%) ([1]; compound 50 μM) | Relative cell viability (%) ([2]; SU-DHL-8, 30 μM) | Relative cell viability (%) ([2]; SU-DHL-8, 50 μM) | Relative cell viability (%) ([2]; SU-DHL-8, 1 μM) | Relative cell viability (%) ([2]; SU-DHL-8, 10 μM) | Proliferation inhibition rate (%) ([1]; compound 100 nM) | Proliferation inhibition rate (%) ([1]; compound 10 nM) | inhibition at 0.01 µM ([1]; Mus musculus, T-cell, 72 h, compound 10 nM, read-out: Proliferation inhibition rate (%)) | inhibition at 0.1 µM ([1]; Mus musculus, T-cell, 72 h, compound 100 nM, read-out: Proliferation inhibition rate (%)) | inhibition at 1 µM ([1]; Mus musculus, T-cell, 72 h, compound 1 μM, read-out: Proliferation inhibition rate (%)) | inhibition at 10 µM ([1]; Mus musculus, T-cell, 72 h, compound 10 μM, read-out: Proliferation inhibition rate (%)) | inhibition at 30 µM ([1]; Mus musculus, T-cell, 72 h, compound 30 μM, read-out: Proliferation inhibition rate (%)) | inhibition at 50 µM ([1]; Mus musculus, T-cell, 72 h, compound 50 μM, read-out: Proliferation inhibition rate (%))
1 | Nc1ncccc1C(=O)NCCCCCCCCCCCCN1CCS(=O)(=O)CC1 [Compound 25, 2-Amino-N-(12-(1,1-dioxidothiomorpholino)dodecyl) nicotinamide] | 100.00% | 100.00% | 100.00% | 100.00% | 0.11% | 0.95% |  |  |  |  |  |  |  |  |  | 
2 | CN1CCN(C(=O)OC(C)(C)C)CC1CCCCCCCCNC(=O)c1cccnc1N (stereo not drawn) [Compound 12, tert-Butyl 3-(8-(2-aminonicotinamide)octyl)-4-methylpiperazine-1-carboxylate] |  |  |  |  | 1.64% | 1.13% | 7.60% | 3.79% |  |  |  |  |  |  |  | 
3 | Cc1ccc(C2CCN(CCCCCCCCCCCCNC(=O)c3cccnc3N)CC2)cc1 [Compound 55, 2-Amino-N-(12-(4-(p-tolyl)piperidin-1-yl)dodecyl) nicotinamide] | 100.00% | 100.00% | 100.00% | 100.00% | 1.10% | 0.97% |  |  | 100.00% |  |  |  |  |  |  | 
4 | CC1CNCCN1CCCCCCCCCCCCNC(=O)c1cccnc1N (stereo not drawn) [Compound 35, 2-Amino-N-(12-(2-methylpiperazin-1-yl)dodecyl) nicotinamide] | 100.00% | 100.00% | 100.00% | 100.00% | 0.42% |  |  | 0.64% | 100.00% |  |  |  |  |  |  | 
5 | CC1CN(CCCCCCCCCCCCNC(=O)c2cccnc2N)CC(C)O1 (stereo not drawn) [Compound 21, 2-Amino-N-(12-(2,6-dimethylmorpholino)dodecyl) nicotinamide] | 100.00% | 100.00% | 100.00% | 100.00% | 3.70% |  |  |  | 100.00% |  |  |  |  |  |  | 
6 | Cl.Nc1ncccc1C(=O)NCCCCCCCCCCCCN1CC[C@H](N)C1 [Compound 50, (S)-2-Amino-N-(12-(3-aminopyrrolidin-1-yl)dodecyl) nicotinamide Hydrochloride] | 100.00% | 100.00% | 100.00% | 100.00% |  |  | 9.20% |  | 100.00% |  |  |  |  |  |  | 
7 | CC(C)(C)OC(=O)N1CCN(CCCCCCCCCCCCNC(=O)c2cccnc2N)CC1 [Compound 111, tert-butyl-4-(12-(2-aminonicotinamido)dodecyl) piperazine-1-carboxylate] | 100.00% | 100.00% | 100.00% | 100.00% |  |  |  |  | 100.00% | 0.00% |  |  |  |  |  | 
8 | Nc1ncccc1C(=O)NCCCCCCCCCCCCN1CCC2CCCCC2C1 (stereo not drawn) [Compound 16, 2-Amino-N-(12-(octahydroisoquinolin-2 (1H)-yl)dodecyl)nicotinamide] |  |  |  |  |  |  |  |  |  |  | 4.13% | -2.93% | 100% | 100% | 100% | 100%
9 | CC1(C)CCN(CCCCCCCCCCCCNC(=O)c2cccnc2N)C1 [Compound 22, 2-Amino-N-(12-(3,3-dimethylpyrrolidin-1-yl)dodecyl) nicotinamide] | 100.00% | 100.00% | 100.00% | 100.00% |  |  |  |  | 100.00% | −0.80% |  |  |  |  |  | 
